Three compounds from ChEMBL document CHEMBL1158502, “Gomphostenins: two new antimalarial compounds from the leaves of Gomphostemma niveum” (Bioorg Med Chem Lett, 2010) can be followed below.

The subject of assay [1] is Plasmodium falciparum. Put plainly: Antiplasmodial activity against chloroquine-sensitive Plasmodium falciparum MRC-02 in human B+ erythrocytes assessed as inhibition of schizont maturation at 0.25 ug/mL after 24 hrs by conventional parasite culture method. In kind it is functional. Conditions: MRC-02, 24 h.
Assay [2] has as its system Plasmodium falciparum. The experiment in a line: Antiplasmodial activity against chloroquine-resistant Plasmodium falciparum in human B+ erythrocytes assessed as inhibition of schizont maturation after 24 hrs by conventional parasite culture method. The class given is functional, organism-based.
The test system of assay [3] is Plasmodium falciparum. Put plainly: Antiplasmodial activity against chloroquine-sensitive Plasmodium falciparum MRC-02 in human B+ erythrocytes assessed as inhibition of schizont maturation after 24 hrs by conventional parasite culture method. In kind it is functional, organism-based. Conditions: MRC-02, 24 h.

The structures appear in SMILES notation. In brackets after ≈: the same amount, converted by molar mass.

Take `CCN(CC)CCCC(C)Nc1ccnc2cc(Cl)ccc12` (stereo not given) [CHLOROQUINE]: in the assay on Plasmodium falciparum [1], the inhibition at 0.25 µg/mL was determined as 100%.

`CC(=O)OC[C@@H]1CC[C@]2(C)C(C)=CC(=O)C[C@H]2[C@]1(C)CCC1=CCOC1=O`: the IC50 in the assay with Plasmodium falciparum [2] was found to be 3.2 µg/mL (≈ 8.55 µM); in the assay on Plasmodium falciparum [3], 3.4 µg/mL (≈ 9.08 µM).

As to `CC1=CC(=O)C[C@H]2[C@](C)(CCC3=CCOC3=O)[C@H](CO)CC[C@]12C` [GOMPHOSTENIN], the IC50 in the assay with Plasmodium falciparum [2] turned out to be 37.7 µg/mL (≈ 113 µM); in the assay on Plasmodium falciparum [3], 38.2 µg/mL (≈ 115 µM).
